Laboratory results reported in patent publication US20240166658A1, “PORPHYRIN DERIVATIVES AND USES THEREOF” (University of Tasmania, priority 2021, published 2024).

Legend:
[1] = GenX vapour test with host-doped filter paper; conditions: for colour of host-doped paper in tube headspace: one hour
Protocol: A solution of medium chain host (9) (2.20×10^−5 M) in dichloromethane was prepared. Whatman 4 filter papers were soaked/dipped in the host solution and left to air dry on a watch glass. An aqueous solution of GenX™ (1 ppm, 3.03×10^−6 M) was prepared in a glass volumetric flask (1 L). The volumetric flask stopper was removed, and the dried host-doped paper was laid on top the opening.
An aqueous solution of GenX™ (1 ppm, 3.03×10^−6 M) was prepared in a glass volumetric flask (1 L). A solution of medium chain host (2.20×10^−5 M) in dichloromethane was prepared. Whatman 4 filter papers were soaked/dipped in the host solution and left to air dry on a watch glass. The filter papers were cut into strips and adhered to the lids of HDPP tubes. Aqueous samples of GenX™ were diluted to 1 ppm, 1 ppb and 1 ppt and poured into the HDPP tubes. The caps were immediately replaced, and the tubes were left for an hour.

[2] = PFCA guest response screening (RGB analysis, UV-Vis)
Protocol: A Puluz® 20 cm portable light tent with moderate and dispersed white LED lighting was used to photograph samples using an iPhone 6S plus camera on a fixed tripod. The automatic flash settings were disabled so there was no reflective interference on the sample vials. Samples that were being directly compared were photographed together to ensure lighting conditions and settings were consistent. The photographs were analysed using ImageJ software according to the procedure of Gallagher, 2014b. Multiple RGB values were chosen from areas of each sample at random to provide an “average” RGB value (Menesatti et al., 2012; Gallagher, 2014a; Phuangsaijai et al., 2021). Those RGB values were used to produce an artificial colour tile for visual comparison, or parameterized for modelling.
To quantify a colour difference, RGB values were transformed within the CIELab colour space. The difference, expressed as ΔE, was determined by measuring the relative distance between two colours. The numeric ΔE value can be used to predict how the two colours are perceived by a standard observer; a ΔE>2 is considered the minimum value to achieve a “just noticeable difference” (JND) (Table 1), which is the smallest difference required for an untrained observer to be able to determine two colours as being different (Castillo et al., 2021).
Experiments were performed at concentrations that could be monitored by the naked eye for practical sensing of PFAS in the field. Complexes of hosts (9), (11) and (12) were formed with the nine different perfluorocarboxylic acids (PFCAs) shown in Table 2 above and the colours of each host−PFCA complex were photographed in a lightbox and analysed using ImageJ software RGB analysis. Pixels of the solution were chosen at random to provide an RGB value. Multiple RGB values were recorded for each host−PFCA solution, and an average colour can be produced. From those values an RGB parameter was used to give a response value for modelling (Tahir et al., 2016).
After preliminary screenings, UV-Vis spectra were collected before and after the addition of 1 molar equivalent of each PFCA for each host, and the degree of complexation was noted by shifts in the Soret bands and formation of a peak at ca. 650 nm. To eliminate dilution effects, PFCA guest solutions were prepared in the equivalent concentration of host. If there was a notable host−guest interaction for a particular PFCA, the host−guest binding was investigated with more rigorous UV-Vis experiments, binding studies, and further colour analyses. Throughout these investigations, PFOA was considered the “average” PFCA both because of its position in the range of PFCA sizes and because its prevalence is often an indication of broader PFAS contamination. In any experiment where binding was further investigated for a particular PFCA, it was typically replicated with PFOA for comparison.

[3] = UV-Vis host-guest titration, association constant; type: binding; conditions: host (9) in dichloromethane; triplicate, TBA salt and acid; Bindfit
Protocol: (§1) Path length of the quartz cell was 1 cm. For UV-vis titrations, a stock solution of host was prepared (2.2×10^−3 M) in dichloromethane (DCM) and serially diluted to the required concentrations. Working solutions of tetrabutylammonium (TBA) anion salts or guest molecules were prepared in the same manner Host−guest titrations used solutions of guest prepared in the working concentration of host solution, according to the procedure of Thordarson, 2011.
(§2) UV-vis spectroscopic host−guest titrations were performed in accordance with the methodologies of Thordarson, 2011. Solutions of host in dichloromethane were prepared. Solutions of guest were then prepared in the host solution. Aliquots of guest in host solution were added to host solution and sequentially analysed until a known molar equivalent of guest was added. The amount of guest added per aliquot was ascertained by a preliminary screening experiment; strong association constants required smaller molar equivalents so more information could be collected. By way of example, host (9) responded to 0.1 molar equivalent of PFBA strongly, so an addition of 1 molar equivalent of PFBA would result in a loss of information. The inverse is true for weaker binding interactions. […]
(§3) A host solution of host (9) in dichloromethane was monitored using UV-Vis analysis as 0.5-10 equivalents of each PFAS was added. […]

[4] = UV-Vis host-guest titration, association constant; type: binding; conditions: host (9) in dichloromethane; triplicate, TBA salt and acid; Bindfit; remark: listed apart in the source
Protocol: as §1, §2, §3

[5] = Preliminary binding study, colour change
Source text: Preliminary binding studies were undertaken by combining an amide linked porphyrin host molecule (9) and tetrabutylammonium perfluorooctanoate (TBAPFO) in dichloromethane.

[6] = UV-Vis host-guest titration, association constant; type: binding; conditions: host (9) in dichloromethane; triplicate, TBA salt and acid; Bindfit; remark: listed apart in the source
Protocol: as §1, §2, §3

[7] = host + one equivalent PFBA in dichloromethane
[8] = host + one equivalent PFDA in dichloromethane
[9] = host + one equivalent PFDoDA in dichloromethane
[10] = host + one equivalent PFHpA in dichloromethane
[11] = host + one equivalent PFHxA in dichloromethane
[12] = host + one equivalent PFNA in dichloromethane
[13] = host + one equivalent PFOA in dichloromethane
[14] = host + one equivalent PFPeA in dichloromethane
[15] = host + one equivalent PFUnDA in dichloromethane

Row | Compound | Absorbance @ 650 nm [2, 7] | Absorbance @ 650 nm [2, 8] | Absorbance @ 650 nm [2, 9] | Absorbance @ 650 nm [2, 10] | Absorbance @ 650 nm [2, 11] | Absorbance @ 650 nm [2, 12] | Absorbance @ 650 nm [2, 13] | Absorbance @ 650 nm [2, 14] | Absorbance @ 650 nm [2, 15] | ΔEHost-PFCA ([2]; host vs host + PFBA) | ΔEHost-PFCA ([2]; host vs host + PFDA) | ΔEHost-PFCA ([2]; host vs host + PFDoDA) | ΔEHost-PFCA ([2]; host vs host + PFHpA) | ΔEHost-PFCA ([2]; host vs host + PFHxA) | ΔEHost-PFCA ([2]; host vs host + PFNA) | ΔEHost-PFCA ([2]; host vs host + PFOA) | ΔEHost-PFCA ([2]; host vs host + PFPeA) | ΔEHost-PFCA ([2]; host vs host + PFUnDA) | also measured
1 | O=C(Nc1ccccc1-c1c2nc(c(-c3ccccc3NC(=O)C(F)(F)C(F)(F)C(F)(F)C(F)(F)C(F)(F)C(F)(F)C(F)(F)F)c3ccc([nH]3)c(-c3ccccc3NC(=O)C(F)(F)C(F)(F)C(F)(F)C(F)(F)C(F)(F)C(F)(F)C(F)(F)F)c3nc(c(-c4ccccc4NC(=O)C(F)(F)C(F)(F)C(F)(F)C(F)(F)C(F)(F)C(F)(F)C(F)(F)F)c4ccc1[nH]4)C=C3)C=C2)C(F)(F)C(F)(F)C(F)(F)C(F)(F)C(F)(F)C(F)(F)C(F)(F)F [host (9), α,α,α,α-5,10,15,20-tetrakis(2-(pentadecafluorooctanoylamino)phenyl)porphyrin] | 0.04939 | 0.03023 | 0.01719 | 0.04879 | 0.04964 | 0.02986 | 0.02885 | 0.04302 | 0.02958 | 46.1 | 39.6 | 22.4 | 47.2 | 47.3 | 38.5 | 39.3 | 46.2 | 38.5 | colour change of host-doped paper over aqueous GenX ([1]; GenX 1 ppm in water, paper on flask opening): A colour change developed immediately; colour of host-doped paper in tube headspace ([1]; aqueous GenX 1 ppb): A green colour was visible; colour of host-doped paper in tube headspace ([1]; aqueous GenX 1 ppm): A green colour was visible; K value (averaged association constant Ka) [3]: 58920; K value (averaged association constant Ka) [4]: 23968; colour change of host solution ([5]; addition of solid TBAPFO to red-brown host solution in dichloromethane): changed colour to green; colour change of host solution, biphasic ([5]; host in dichloromethane (0.0124 mmol, 5 mL) and TBAPFO 3 ppm in water (500 mL)): colour change of the host solution could also be observed; K value (averaged association constant Ka) [6]: 392106
2 | O=C(Nc1ccccc1-c1c2nc(c(-c3ccccc3NC(=O)C(F)(F)C(F)(F)C(F)(F)C(F)(F)C(F)(F)C(F)(F)C(F)(F)C(F)(F)C(F)(F)C(F)(F)C(F)(F)F)c3ccc([nH]3)c(-c3ccccc3NC(=O)C(F)(F)C(F)(F)C(F)(F)C(F)(F)C(F)(F)C(F)(F)C(F)(F)C(F)(F)C(F)(F)C(F)(F)C(F)(F)F)c3nc(c(-c4ccccc4NC(=O)C(F)(F)C(F)(F)C(F)(F)C(F)(F)C(F)(F)C(F)(F)C(F)(F)C(F)(F)C(F)(F)C(F)(F)C(F)(F)F)c4ccc1[nH]4)C=C3)C=C2)C(F)(F)C(F)(F)C(F)(F)C(F)(F)C(F)(F)C(F)(F)C(F)(F)C(F)(F)C(F)(F)C(F)(F)C(F)(F)F [host (12), α,α,α,α-5,10,15,20-tetrakis(2-(tricosafluorododecanoylamino)phenyl) porphyrin] | 0.0906 | 0.0918 | 0.0769 | 0.0737 | 0.0728 | 0.0953 | 0.0913 | 0.0692 | 0.0808 | 21.1 | 22.3 | 17.9 | 16.3 | 17.5 | 22.3 | 21.8 | 9.8 | 18.8 | 
